One assay has as its system plasma uric acid. Description: Rat high-fat diet study: plasma uric acid. To be noted: HFD rats, once daily oral gavage in weeks four and five, fold change relative to group 3 (HFD reference), * = P < 0.05. The format is in vivo, Sprague Dawley male rats. The method, then: (§1) The Ethics Committee of Atatürk University approved all experimental protocols about animal care, handling and experimentation. All experiments were performed in accordance with relevant guidelines and regulations. 44 Sprague Dawley male rats (10-12 weeks old) weighing 375-415 g were obtained from Atatürk University Experimental Research Center (ATADEM) and housed at 22±2° C. with 50±5% humidity on a 12 hr light/dark cycle.
(§2) Chow diet (CD) and a high-fat diet (HFD) were used to fed the animals in this study. The CD was composed of wheat, wheat bran, rice polishing and fish meal, with approximately 25% proteins, 60% carbohydrates and 15% fat in terms of the caloric content. On the other hand, HFD was composed of normal food, beef tallow, sugar and condensed milk and contained approximately 14% proteins, 37% carbohydrates and 49% fat in terms of the caloric content.
(§3) Following 1-week habituation, the rats were separated into two groups: a control group (Group 1, n=4), which was fed with a regular CD; and the HFD group (n=40), which was fed with HFD. After three weeks, four rats in the HFD group (Group 2) were randomly sacrificed and the remaining 36 rats in the HFD group were randomly divided into nine sub-groups (Groups 3-11, four rats in each subgroup).
(§4) Groups 3-11 received the following treatments during weeks four and five: • Group 3 received only the HFD (reference) • Group 4 received the HFD and Serine (1000 mg/kg once daily by oral gavage) • Group 5 received the HFD and NAC (300 mg/kg once daily by oral gavage) • Group 6 received the HFD and L-Carnitine tartrate (LCAT) (100 mg/kg once daily by oral gavage) • Group 7 received the HFD and Nicotinamide riboside chloride (NRCl) (120 mg/kg once daily by oral gavage) • Group 8 received the HFD and Nicotinamide (NA) (120 mg/kg once daily by oral gavage) • Group 9 received the HFD, Serine (1000 mg/kg once daily by oral gavage), NAC (300 mg/kg once daily by oral gavage) and LCAT (100 mg/kg once daily by oral gavage) • Group 10 received the HFD, Serine (1000 mg/kg once daily by oral gavage), NAC (300 mg/kg once daily by oral gavage), LCAT (100 mg/kg/day) and NRCl (120 mg/kg once daily by oral gavage) • Group 11 received the HFD, Serine (1000 mg/kg once daily by oral gavage), NAC (300 mg/kg once daily by oral gavage), LCAT (100 mg/kg once daily by oral gavage) and NA (120 mg/kg once daily by oral gavage)
(§5) The body weight and food intake of the rats was recorded each week. After week five, all animals of groups 3-11 were anesthetized with isoflurane and sacrificed. Blood samples were collected from the abdominal aorta and centrifuged at 8000 rpm for 15 min at 4° C. The plasma was separated and stored at −80° C. until further analysis.
(§6) Plasma samples were thawed and analyzed for creatinine and uric acid.

Another assay concerns plasma creatinine. Description: Rat high-fat diet study: plasma creatinine. The format is in vivo, Sprague Dawley male rats. To be noted: HFD rats, once daily oral gavage in weeks four and five, fold change relative to group 3 (HFD reference), * = P < 0.05. The protocol:
as §1, §2, §3, §4, §5, §6

Molecules are shown by their SMILES.

As for `NC(=O)c1cccnc1` [NA, Nicotinamide], the “Uric Acid Fold change” value in the assay on plasma uric acid is recorded as 0.53*. Besides, in the assay on plasma creatinine, the “Creatinine Fold change” value came out at 0.96.
Regarding `C[N+](C)(C)C[C@H](O)CC(=O)[O-].O=C(O)C(O)C(O)C(=O)O` [LCAT, L-Carnitine tartrate], the “Uric Acid Fold change” value in the assay on plasma uric acid is recorded as 0.62*. Moreover, the “Creatinine Fold change” value with plasma creatinine stood at 0.89.
On the same counts, the results for `CC(=O)N[C@@H](CS)C(=O)O` [NAC, N-acetyl cysteine] are 0.76 and 0.85.
For `NC(=O)c1ccc[n+]([C@@H]2O[C@H](CO)[C@@H](O)[C@H]2O)c1.[Cl-]` [NRCl, Nicotinamide riboside chloride], in that order: 0.64* and 0.83*.
As to `N[C@@H](CO)C(=O)O` [Serine], the “Uric Acid Fold change” value in the assay with plasma uric acid is 0.72*. In addition, in the assay on plasma creatinine, the “Creatinine Fold change” value is 0.84*.
